In patent publication US8530493B2, “Indolopyridines as Eg5 kinesin modulators” (4SC AG, priority 2006, dated 2013):

Assays:
[1] = system: RKO p27 or p21 uninduced (proliferating) colon adenocarcinoma cells; assay: Alamar Blue cell viability assay, RKO p27 or p21 uninduced (proliferating); format: cell-based; details: Homo sapiens, RKOp27, 72 h, Table B2, anti-proliferative/cytotoxic activity, read-out: −log EC50 RKO p27 or p21 uninduced (proliferating) (converted)
Procedure: The anti-proliferative/cytotoxic activity of the compounds described herein can be tested on subclones of RKO human colon adenocarcinoma cells (Schmidt et al., Oncogene 19, 2423-2429; 2000) using the Alamar Blue cell viability assay (described in O'Brien et al. Eur J Biochem 267, 5421-5426, 2000). The compounds are dissolved as 10 mM solutions in DMSO and subsequently diluted in semi-logarithmic steps. DMSO dilutions are further diluted 1:100 into Dulbecco's modified Eagle's medium (DMEM) containing 10% fetal calf serum to a final concentration twice as much as the final concentration in the test. RKO subclones are seeded into 96 well flat bottom plates at a density of 4000 cells per well in a volume of 50 μl per well. 24 hours after seeding the 50 μl each of the compound dilutions in DMEM medium are added into each well of the 96 well plate. Each compound dilution is tested as triplicates. Wells containing untreated control cells are filled with 50 μl DMEM medium containing 1% DMSO. The cells are then incubated with the substances for 72 hours at 37° C. in a humidified atmosphere containing 5% carbon dioxide. To determine the viability of the cells, 10 μl of an Alamar Blue solution (Biosource) are added and the fluorescence is measured at an extinction of 544 nm and an emission of 590 nm. For the calculation of the cell viability the emission value from untreated cells is set as 100% viability and the emission rates of treated cells are set in relation to the values of untreated cells. Viabilities are expressed as % values. The Graphpad Prism program is used for the calculation of EC50 values for anti-proliferative/cytotoxic activity out of the obtained dose-response curves.
(§1) To determine the cell cycle specific mode of action, subclones of RKO colon adenocarcinoma cells (RKOp21 or RKOp27 as described by Schmidt et al. in Oncogene 19, 2423-2429; 2000) are seeded into 96 well flat bottom plates at a density of 16000 cells per well in a volume of 50 μl per well in DMEM growth medium with 10% FCS containing 10 μM Ponasterone A. 24 hours after seeding the 50 μl each of the compound dilutions in DMEM medium are added into each well of the 96-well plate. Each compound dilution is tested as triplicates. Wells containing untreated control cells are filled with 50 μl DMEM medium containing 1% DMSO. The cells are then incubated with the substances for 72 hours at 37° C. in a humidified atmosphere containing 5% carbon dioxide. To determine the viability of the cells, 10 μl of an Alamar Blue solution (Biosource) are added and the fluorescence is measured at an extinction of 544 nm and an emission of 590 nm. For the calculation of the cell viability the emission value from untreated cells is set as 100% viability and the emission rates of treated cells are set in relation to the values of untreated cells. Viabilities are expressed as % values. The Graphpad Prism program (GraphPad Software, Inc) is used for the calculation of EC50 values out of the obtained dose-response curves. Viability is compared of proliferating cells grown in the absence of the inducer Ponasterone A, versus viability of cells arrested by the expression of ectopic p27Kip1 induced by Ponasterone A.
(§2) Representative values for anti-proliferation/cytotoxicity [measured as −log EC50 (mol/l)] determined in the aforementioned assays follow from the following tables B1, B2 and B3, in which the numbers of the compounds correspond to the numbers of the examples.

[2] = system: RKO p27 or p21 induced (arrested) colon adenocarcinoma cells; assay: Alamar Blue cell viability assay, RKO p27 or p21 induced (arrested); format: cell-based; details: Homo sapiens, RKOp27, Table B2, cells arrested by Ponasterone A, 72 hours, read-out: −log EC50 RKO p27 or p21 induced (arrested) (converted)
Procedure: as §1, §2

SMILES	EC50 [1]	EC50 [2]
CCN(CC)CCCN1C(=O)N2[C@H](c3cccc(O)c3)c3[nH]c4ccc(OC)cc4c3C[C@@]2(C)C1=O (racemic) [Example 107, (3aSR,10RS)-2-(3-Diethylamino-propyl)-10-(3-hydroxy-phenyl)-6-methoxy-3a-methyl-3a,4,9,10-tetrahydro-2,9,10a-triaza-cyclopenta[b]fluorene-1,3-dione]	≤ 39.8 nM	≥ 316 nM
COc1ccc2[nH]c3c(c2c1)C[C@@]1(C)C(=O)N(CCCN2CCCCC2)C(=O)N1[C@@H]3c1cccc(O)c1 (racemic) [Example 105, (3aSR,10RS)-10-(3-Hydroxy-phenyl)-6-methoxy-3a-methyl-2-(3-piperidin-1-yl-propyl)-3a,4,9,10-tetrahydro-2,9,10a-triaza-cyclopenta[b]fluorene-1,3-dione]	≤ 39.8 nM	≥ 316 nM
COc1ccc2[nH]c3c(c2c1)C[C@@]1(C)C(=O)N(CCCNCC(F)F)C(=O)N1[C@@H]3c1cccc(O)c1 (racemic) [Example 142, (3aSR,10RS)-2-[3-(2,2-Difluoro-ethylamino)-propyl]-10-(3-hydroxy-phenyl)-6-methoxy-3a-methyl-3a,4,9,10-tetrahydro-2,9,10a-triaza-cyclopenta[b]fluorene-1,3-dione]	39.8 to 251 nM	≥ 316 nM
C#CC(C)NCCCN1C(=O)N2[C@H](c3cccc(O)c3)c3[nH]c4ccc(Cl)cc4c3C[C@@]2(C)C1=O (mixture of isomers) [Example 136, (3aSR,10RS)-6-Chloro-10-(3-hydroxy-phenyl)-3a-methyl-2-[3-((R and S)1-methyl-prop-2-ynylamino)-propyl]-3a,4,9,10-tetrahydro-2,9,10a-triaza-cyclopenta[b]fluorene-1,3-dione]	≤ 39.8 nM	≥ 3160 nM
CCN(CC)CCN1C(=O)N2[C@H](c3cccc(O)c3)c3[nH]c4ccc(Cl)cc4c3C[C@@]2(C)C1=O (racemic) [Example 110, (3aSR,10RS)-6-Chloro-2-(2-diethylamino-ethyl)-10-(3-hydroxy-phenyl)-3a-methyl-3a,4,9,10-tetrahydro-2,9,10a-triaza-cyclopenta[b]fluorene-1,3-dione]	≤ 39.8 nM	≥ 316 nM
COc1ccc2[nH]c3c(c2c1)C[C@@]1(C)C(=O)N(CCCN2CCCC2)C(=O)N1[C@@H]3c1cccc(O)c1 (racemic) [Example 96, (3aSR,10RS)-10-(3-Hydroxy-phenyl)-6-methoxy-3a-methyl-2-(3-pyrrolidin-1-yl-propyl)-3a,4,9,10-tetrahydro-2,9,10a-triaza-cyclopenta[b]fluorene-1,3-dione]	≤ 39.8 nM	≥ 3160 nM
CCN(CCOC)CCN1C(=O)N2[C@H](c3cccc(O)c3)c3[nH]c4ccc(OC)cc4c3C[C@@]2(C)C1=O (racemic) [Example 79, (3aSR,10RS)-2-[2-[Ethyl-(2-methoxy-ethyl)-amino]-ethyl}-10-(3-hydroxy-phenyl)-6-methoxy-3a-methyl-3a,4,9,10-tetrahydro-2,9,10a-triaza-cyclopenta[b]fluorene-1,3-dione]	≤ 39.8 nM	≥ 3160 nM
CCN(CCOC)CCN1C(=O)N2[C@H](c3cccc(O)c3)c3[nH]c4ccc(Cl)cc4c3C[C@@]2(C)C1=O (racemic) [Example 121, (3aSR,10RS)-6-Chloro-2-{2-[ethyl-(2-methoxy-ethyl)-amino]-ethyl}-10-(3-hydroxy-phenyl)-3a-methyl-3a,4,9,10-tetrahydro-2,9,10a-triaza-cyclopenta[b]fluorene-1,3-dione]	39.8 to 251 nM	≥ 316 nM
C#CCN(C)CCN1C(=O)N2[C@H](c3cccc(O)c3)c3[nH]c4ccc(Cl)cc4c3C[C@@]2(C)C1=O (racemic) [Example 116, (3aSR,10RS)-6-Chloro-10-(3-hydroxy-phenyl)-3a-methyl-2-[2-(methyl-prop-2-ynyl-amino)-ethyl]-3a,4,9,10-tetrahydro-2,9,10a-triaza-cyclopenta[b]fluorene-1,3-dione]	39.8 to 251 nM	≥ 316 nM
CCN(CCCN1C(=O)N2[C@H](c3cccc(O)c3)c3[nH]c4ccc(OC)cc4c3C[C@@]2(C)C1=O)CCOC (racemic) [Example 90, (3aSR,10RS)-2-{3-[Ethyl-(2-methoxy-ethyl)-amino]-propyl}-10-(3-hydroxy-phenyl)-6-methoxy-3a-methyl-3a,4,9,10-tetrahydro-2,9,10a-triaza-cyclopenta[b]fluorene-1,3-dione]	≤ 39.8 nM	≥ 3160 nM
COc1ccc2[nH]c3c(c2c1)C[C@@]1(C)C(=O)N(CCCN2CCC(C)CC2)C(=O)N1[C@@H]3c1cccc(O)c1 (racemic) [Example 112, (3aSR,10RS)-10-(3-Hydroxy-phenyl)-6-methoxy-3a-methyl-2-[3-(4-methyl-piperidin-1-yl)-propyl]-3a,4,9,10-tetrahydro-2,9,10a-triaza-cyclopenta[b]fluorene-1,3-dione]	≤ 39.8 nM	≥ 316 nM
CC(C)N(C)CCCN1C(=O)N2[C@H](c3cccc(O)c3)c3[nH]c4ccc(Cl)cc4c3C[C@@]2(C)C1=O (racemic) [Example 133, (3aSR,10RS)-6-Chloro-10-(3-hydroxy-phenyl)-2-[3-(isopropyl-methyl-amino)-propyl]-3a-methyl-3a,4,9,10-tetrahydro-2,9,10a-triaza-cyclopenta[b]fluorene-1,3-dione]	≤ 39.8 nM	≥ 316 nM
C[C@@]12Cc3c([nH]c4ccc(Cl)cc34)[C@@H](c3cccc(O)c3)N1C(=O)N(CCN1CC=CC1)C2=O (racemic) [Example 109, (3aSR,10RS)-6-Chloro-2-[2-(2,5-dihydro-pyrrol-1-yl)-ethyl]-10-(3-hydroxy-phenyl)-3a-methyl-3a,4,9,10-tetrahydro-2,9,10a-triaza-cyclopenta[b]fluorene-1,3-dione]	≤ 39.8 nM	≥ 316 nM
COc1ccc2[nH]c3c(c2c1)C[C@@]1(C)C(=O)N(CCN2CCC(C)CC2)C(=O)N1[C@@H]3c1cccc(O)c1 (racemic) [Example 75, (3aSR,10RS)-10-(3-Hydroxy-phenyl)-6-methoxy-3a-methyl-2-[2-(4-methyl-piperidin-1-yl)-ethyl]-3a,4,9,10-tetrahydro-2,9,10a-triaza-cyclopenta[b]fluorene-1,3-dione]	39.8 to 251 nM	≥ 3160 nM
C#CCN(C)CCCN1C(=O)N2[C@H](c3cccc(O)c3)c3[nH]c4ccc(OC)cc4c3C[C@@]2(C)C1=O (racemic) [Example 144]	39.8 to 251 nM	≥ 316 nM
COc1ccc2[nH]c3c(c2c1)C[C@@]1(C)C(=O)N(CCN2CCCCCC2)C(=O)N1[C@@H]3c1cccc(O)c1 (racemic) [Example 74, (3aSR,10RS)-2-(2-Azepan-1-yl-ethyl)-10-(3-hydroxy-phenyl)-6-methoxy-3a-methyl-3a,4,9,10-tetrahydro-2,9,10a-triaza-cyclopenta[b]fluorene-1,3-dione]	≤ 39.8 nM	≥ 3160 nM
COc1ccc2[nH]c3c(c2c1)C[C@@]1(C)C(=O)N(CCN2CCCCC2)C(=O)N1[C@@H]3c1cccc(O)c1 (racemic) [Example 71, (3aSR,10RS)-10-(3-Hydroxy-phenyl)-6-methoxy-3a-methyl-2-(2-piperidin-1-yl-ethyl)-3a,4,9,10-tetrahydro-2,9,10a-triaza-cyclopenta[b]fluorene-1,3-dione]	≤ 39.8 nM	≥ 3160 nM
C#CCNCCCN1C(=O)N2[C@H](c3cccc(O)c3)c3[nH]c4ccc(OC)cc4c3C[C@@]2(C)C1=O (racemic) [Example 147, (3aSR,10RS)-10-(3-Hydroxy-phenyl)-6-methoxy-3a-methyl-2-(3-prop-2-ynylamino-propyl)-3a,4,9,10-tetrahydro-2,9,10a-triaza-cyclopenta[b]fluorene-1,3-dione]	≤ 39.8 nM	≥ 316 nM
